Experimental data as given in ChEMBL document CHEMBL5360647, “A Systematic Survey of Reversibly Covalent Dipeptidyl Inhibitors of the SARS-CoV-2 Main Protease” (J Med Chem, 2023).
pEC50: −log10 of the molar value.

Each molecule was assayed on SARS-CoV-2 (assay: Antiviral activity against SARS-CoV-2 USA-WA1/2020 infected in Vero E6 cells assessed as reduction in viral plaque formation incubated for 3 days by plaque reduction neutralization assay). Details: Severe acute respiratory syndrome coronavirus 2, USA-WA1/2020, Vero C1008, 72 h.
Format: functional, organism-based

Compound | pEC50
CC1(C)[C@@H]2[C@@H](C(=O)N[C@H](C=O)C[C@@H]3CCNC3=O)N(C(=O)OCc3ccccc3)C[C@@H]21 | 5.82
O=C[C@H](C[C@@H]1CCNC1=O)NC(=O)C1CC2(CCCC2)CN1C(=O)OCc1ccccc1 (stereo partly drawn) | 6.43
O=C[C@H](C[C@@H]1CCNC1=O)NC(=O)C1CC2(CCCCC2)CN1C(=O)OCc1ccccc1 (stereo partly drawn) | 6.43
